The values below come from patent publication US20250312499A1, “KISSPEPTIN RECEPTOR (KISS1R) TARGETED THERAPEUTICS AND USES THEREOF” (priority 2024, published 2025).

For orientation: Ki means the dissociation constant of the complex between target and ligand, obtained from inhibition or displacement.

Numbered stars: 1 amine (or outer) side, 2 acyl side, 3 side chain; on linkers, the order of the positions; unused ones are H or OH. Square brackets hold non-standard residues; d marks the D form. Peptide text beside a SMILES is read from it. * marks the point of attachment. DOTA = O=C(O)CN1CCN(CC(=O)O)CCN(CC(=O)*)CCN(CC(=O)O)CC1; Gly(N-(3-F-4-Me-benzyl)) = Cc1ccc(CNCC(=O)*)cc1F; Propanoyl(3-(MeO(CH2CH2O)2)) = COCCOCCOCCC(=O)*; X11 = O=C(c1ccc(-c2ccccc2)c(OCCN[*:1])c1)[*:2]; Api(1-amidino) = N=C(N)N1CCC(N)(C(=O)O)CC1; Bip = N[C@@H](Cc1ccc(-c2ccccc2)cc1)C(=O)O; Phe(4-CN) = N#Cc1ccc(C[C@H](N)C(=O)O)cc1; 2Nal = N[C@@H](Cc1ccc2ccccc2c1)C(=O)O; d2Nal = N[C@H](Cc1ccc2ccccc2c1)C(=O)O; 4Pal = N[C@@H](Cc1ccncc1)C(=O)O; d4Pal = N[C@H](Cc1ccncc1)C(=O)O; Cha = N[C@@H](CC1CCCCC1)C(=O)O; 4Amb = NCc1ccc(C(=O)O)cc1; Api = NC1(C(=O)O)CCNCC1; Ahx = NCCCCCC(=O)O; azaGly = NNC(=O)O A value given as a limit tells only on which side of the number the result lay.

For the test, the target named is human kisspeptin receptor (Homo sapiens (Human), UniProt Q969F8). Description: Human KISS1R binding assay (membrane competition binding). The note with it: 90 min at room temperature; competition with 0.2 nM [125I]-metastin (45-54); Flp-In T-Rex 293 kisspeptin membranes; metal complexes nonradioactive Ga, In, Lu; read-out: hKiSSR Binding Ki (90 min). Summed up:
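Membranes from tetracycline-induced (48 h) Flp-In T-Rex 293 cells expressing receptor, 5–10 μg, incubated 90 min at room temperature with 0.2 nM [125I]-metastin (45-54) and competitor (typically 0–10,000 nM) in Tris/Mg/Ca/EGTA/0.1% BSA, pH 7.4. Filtration, washing, counting; Ki by non-linear regression.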

human kisspeptin receptor, sequence (Q969F8 whole entry): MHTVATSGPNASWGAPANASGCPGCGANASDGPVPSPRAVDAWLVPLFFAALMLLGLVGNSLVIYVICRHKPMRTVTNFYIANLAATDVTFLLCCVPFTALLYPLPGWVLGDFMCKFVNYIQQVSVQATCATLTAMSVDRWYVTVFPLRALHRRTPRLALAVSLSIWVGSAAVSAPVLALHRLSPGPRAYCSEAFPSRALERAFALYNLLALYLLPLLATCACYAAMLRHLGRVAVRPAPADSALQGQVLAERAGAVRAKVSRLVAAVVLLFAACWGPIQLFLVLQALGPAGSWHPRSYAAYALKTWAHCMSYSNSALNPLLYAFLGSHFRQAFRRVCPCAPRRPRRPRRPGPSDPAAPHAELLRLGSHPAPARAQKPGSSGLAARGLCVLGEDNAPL

As for `Cc1ccc(CNCC(=O)N2CCC(NC(=O)[C@H](CC(C)C)NC(=O)NNC(=O)[C@H](CC3CCCCC3)NC(=O)c3ccc(CNC(=O)CN4CCN(CC(=O)O)CCN(CC(=O)O)CCN(CC(=O)O)CC4)cc3)(C(=O)N[C@@H](Cc3c[nH]c4ccccc34)C(N)=O)CC2)cc1F` [Compound 261] ({DOTA-4Amb}-[Cha][azaGly]L[Api](Gly(N-(3-F-4-Me-benzyl)))W-NH2), the Ki was < 10 nM.

As for `COCCOCCOCCC(=O)N[C@@H](CCCCNC(=O)CN1CCN(CC(=O)O)CCN(CC(=O)O)CCN(CC(=O)O)CC1)C(=O)N[C@@H](CC(N)=O)C(=O)N[C@H](C(=O)N[C@@H](Cc1ccccc1)C(=O)NNC(=O)N[C@@H](CC(C)C)C(=O)NC1(C(=O)N[C@@H](Cc2c[nH]c3ccccc23)C(N)=O)CCN(C(=N)N)CC1)[C@@H](C)O` [Compound 264] ({Propanoyl(3-(MeO(CH2CH2O)2))}-K(DOTA)NTF[azaGly]L[Api(1-amidino)]W-NH2), the Ki was < 10 nM.

As for `CC(C)C[C@H](NC(=O)NNC(=O)[C@H](Cc1ccccc1)NC(=O)[C@@H](NC(=O)[C@H](CC(N)=O)NC(=O)[C@@H](Cc1ccc2ccccc2c1)NC(=O)[C@@H](Cc1ccc(O)cc1)NC(=O)CCCCCNC(=O)CN1CCN(CC(=O)O)CCN(CC(=O)O)CCN(CC(=O)O)CC1)[C@@H](C)O)C(=O)NC1(C(=O)N[C@@H](Cc2c[nH]c3ccccc23)C(N)=O)CCN(C(=N)N)CC1` [Compound 269] ({DOTA-Ahx}-[dY][d2Nal]NTF[azaGly]L[Api(1-amidino)]W-NH2), the Ki was < 10 nM.

In the case of `CC(C)C[C@H](NC(=O)NNC(=O)[C@H](Cc1ccccc1)NC(=O)[C@@H](NC(=O)[C@H](CC(N)=O)NC(=O)[C@@H](Cc1c[nH]c2ccccc12)NC(=O)[C@@H](Cc1ccc(O)cc1)NC(=O)c1ccc(CNC(=O)CCCCCNC(=O)CN2CCN(CC(=O)O)CCN(CC(=O)O)CCN(CC(=O)O)CC2)cc1)[C@@H](C)O)C(=O)NC1(C(=O)N[C@@H](Cc2c[nH]c3ccccc23)C(N)=O)CCN(C(=N)N)CC1` [Compound 270] ({DOTA-Ahx-4Amb}-[dY][dW]NTF[azaGly]L[Api(1-amidino)]W-NH2), the Ki was < 10 nM.

On to `CC(C)C[C@H](NC(=O)NNC(=O)[C@H](Cc1ccc(-c2ccccc2)cc1)NC(=O)[C@@H](NC(=O)[C@H](CC(N)=O)NC(=O)[C@@H](Cc1c[nH]c2ccccc12)NC(=O)[C@@H](Cc1ccc(O)cc1)NC(=O)CCCCCNC(=O)CN1CCN(CC(=O)O)CCN(CC(=O)O)CCN(CC(=O)O)CC1)[C@@H](C)O)C(=O)NC1(C(=O)N[C@@H](Cc2c[nH]c3ccccc23)C(N)=O)CCN(C(=N)N)CC1` [Compound 271] ({DOTA-Ahx}-[dY][dW]NT[Bip][azaGly]L[Api(1-amidino)]W-NH2), for which the Ki was 10 to 100 nM.

For `CC(C)C[C@H](NC(=O)NNC(=O)[C@H](Cc1ccccc1)NC(=O)[C@@H](NC(=O)[C@H](CC(N)=O)NC(=O)c1ccc(CNC(=O)CN2CCN(CC(=O)O)CCN(CC(=O)O)CCN(CC(=O)O)CC2)cc1)[C@@H](C)O)C(=O)NC1(C(=O)N[C@@H](Cc2ccncc2)C(N)=O)CCN(C(=N)N)CC1` [Compound 272] ({DOTA-4Amb}-NTF[azaGly]L[Api(1-amidino)][4Pal]-NH2), the Ki is < 10 nM.

Take `CC(C)C[C@H](NC(=O)NNC(=O)[C@H](Cc1ccccc1)NC(=O)[C@@H](NC(=O)[C@H](CC(N)=O)NC(=O)[C@H](Cc1ccncc1)NC(=O)[C@@H](Cc1ccc(O)cc1)NC(=O)CN1CCN(CC(=O)O)CCN(CC(=O)O)CCN(CC(=O)O)CC1)[C@@H](C)O)C(=O)NC1(C(=O)N[C@@H](Cc2ccncc2)C(N)=O)CCN(C(=N)N)CC1` [Compound 273] ({DOTA}-[dY][4Pal]NTF[azaGly]L[Api(1-amidino)][4Pal]-NH2): the Ki lay in the range of 10 to 100 nM.

Turning to `CC(C)C[C@H](NC(=O)NNC(=O)[C@H](Cc1ccccc1)NC(=O)[C@@H](NC(=O)[C@H](CC(N)=O)NC(=O)[C@H](Cc1ccc2ccccc2c1)NC(=O)[C@@H](Cc1ccc(O)cc1)NC(=O)CCCCCNC(=O)CN1CCN(CC(=O)O)CCN(CC(=O)O)CCN(CC(=O)O)CC1)[C@@H](C)O)C(=O)NC1(C(=O)N[C@@H](Cc2ccncc2)C(N)=O)CCN(C(=N)N)CC1` [Compound 275] ({DOTA-Ahx}-[dY][2Nal]NTF[azaGly]L[Api(1-amidino)][4Pal]-NH2), the Ki was < 10 nM.

Take `CC(C)C[C@H](NC(=O)NNC(=O)[C@H](Cc1ccccc1)NC(=O)[C@@H](NC(=O)[C@H](CC(N)=O)NC(=O)[C@H](Cc1ccc2ccccc2c1)NC(=O)[C@@H](Cc1ccc(O)cc1)NC(=O)CCCCCNC(=O)CN1CCN(CC(=O)O)CCN(CC(=O)O)CCN(CC(=O)O)CC1)[C@@H](C)O)C(=O)NC1(C(=O)N[C@@H](Cc2ccc(O)cc2)C(N)=O)CCN(C(=N)N)CC1` [Compound 276] ({DOTA-Ahx}-[dY][2Nal]NTF[azaGly]L[Api(1-amidino)]Y-NH2): the inhibition constant (Ki) is < 10 nM.

On to `CC(C)C[C@H](NC(=O)NNC(=O)[C@H](Cc1ccccc1)NC(=O)[C@@H](NC(=O)[C@H](CC(N)=O)NC(=O)[C@H](Cc1ccc2ccccc2c1)NC(=O)[C@@H](Cc1ccc(O)cc1)NC(=O)CCCCCNC(=O)CN1CCN(CC(=O)O)CCN(CC(=O)O)CCN(CC(=O)O)CC1)[C@@H](C)O)C(=O)NC1(C(=O)N[C@@H](Cc2ccccc2)C(N)=O)CCN(C(=N)N)CC1` [Compound 277] ({DOTA-Ahx}-[dY][2Nal]NTF[azaGly]L[Api(1-amidino)]F-NH2), for which the inhibitory constant (Ki) was < 10 nM.

Regarding `CC(C)C[C@H](NC(=O)NNC(=O)[C@H](Cc1ccccc1)NC(=O)[C@@H](NC(=O)[C@H](CC(N)=O)NC(=O)[C@H](Cc1ccc2ccccc2c1)NC(=O)[C@@H](Cc1ccc(O)cc1)NC(=O)CCCCCNC(=O)CN1CCN(CC(=O)O)CCN(CC(=O)O)CCN(CC(=O)O)CC1)[C@@H](C)O)C(=O)NC1(C(=O)N[C@@H](Cc2ccc(C#N)cc2)C(N)=O)CCN(C(=N)N)CC1` [Compound 278] ({DOTA-Ahx}-[dY][2Nal]NTF[azaGly]L[Api(1-amidino)][Phe(4-CN)]-NH2), the Ki was < 10 nM.

Consider `Cc1ccc(CNCC(=O)N2CCC(NC(=O)c3ccc(-c4ccccc4)c(OCCNC(=O)[C@H](Cc4ccccc4)NC(=O)[C@@H](NC(=O)[C@H](CC(N)=O)NC(=O)[C@@H](Cc4c[nH]c5ccccc45)NC(=O)[C@@H](Cc4ccc(O)cc4)NC(=O)CCCCCNC(=O)CN4CCN(CC(=O)O)CCN(CC(=O)O)CCN(CC(=O)O)CC4)[C@@H](C)O)c3)(C(=O)N[C@@H](Cc3c[nH]c4ccccc34)C(N)=O)CC2)cc1F` [Compound 279] ({DOTA-Ahx}-[dY][dW]NTF[X11][Api](Gly(N-(3-F-4-Me-benzyl)))W-NH2), for which the Ki is < 10 nM.

As for `Cc1ccc(CNCC(=O)N2CCC(NC(=O)c3ccc(-c4ccccc4)c(OCCNNC(=O)[C@H](Cc4ccccc4)NC(=O)CCCCCNC(=O)CN4CCN(CC(=O)O)CCN(CC(=O)O)CCN(CC(=O)O)CC4)c3)(C(=O)N[C@@H](Cc3c[nH]c4ccccc34)C(N)=O)CC2)cc1F` [Compound 280], the Ki was > 100 nM.

Turning to `Cc1ccc(CNCC(=O)N2CCC(NC(=O)[C@H](CC(C)C)NC(=O)NNC(=O)[C@H](Cc3ccccc3)NC(=O)[C@@H](NC(=O)[C@H](CC(N)=O)NC(=O)[C@@H](Cc3ccncc3)NC(=O)[C@@H](Cc3ccc(O)cc3)NC(=O)CN3CCN(CC(=O)O)CCN(CC(=O)O)CCN(CC(=O)O)CC3)[C@@H](C)O)(C(=O)N[C@@H](Cc3ccncc3)C(N)=O)CC2)cc1F` [Compound 281] ({DOTA}-[dY][d4Pal]NTF[azaGly]L[Api](Gly(N-(3-F-4-Me-benzyl)))[4Pal]-NH2), the inhibitory constant (Ki) is < 10 nM.

In the case of `Cc1ccc(CNCC(=O)N2CCC(NC(=O)c3cc(OCCNC(=O)[C@H](Cc4ccccc4)NC(=O)CCCCCNC(=O)CN4CCN(CC(=O)O)CCN(CC(=O)O)CCN(CC(=O)O)CC4)c(-c4ccccc4)cc3C)(C(=O)N[C@@H](Cc3c[nH]c4ccccc34)C(N)=O)CC2)cc1F` [Compound 282], the Ki is > 100 nM.

Turning to `Cc1ccc(CNCC(=O)N2CCC(NC(=O)c3ccc(-c4ccccc4OCCNC(=O)[C@H](Cc4ccccc4)NC(=O)CCCCCNC(=O)CN4CCN(CC(=O)O)CCN(CC(=O)O)CCN(CC(=O)O)CC4)cc3)(C(=O)N[C@@H](Cc3c[nH]c4ccccc34)C(N)=O)CC2)cc1F` [Compound 283], the Ki lay within 10 to 100 nM.

Consider `CCc1cc(-c2ccccc2OCCNC(=O)[C@H](Cc2ccccc2)NC(=O)CCCCCNC(=O)CN2CCN(CC(=O)O)CCN(CC(=O)O)CCN(CC(=O)O)CC2)ccc1C(=O)NC1(C(=O)N[C@@H](Cc2c[nH]c3ccccc23)C(N)=O)CCN(C(=O)CNCc2ccc(C)c(F)c2)CC1` [Compound 284], for which the Ki lay within 10 to 100 nM.

Regarding `Cc1ccc(CNCC(=O)N2CCC(NC(=O)[C@H](CC(C)C)NC(=O)NNC(=O)[C@H](Cc3ccccc3)NC(=O)CCCCCNC(=O)[C@H](Cc3ccc4ccccc4c3)NC(=O)[C@@H](Cc3ccc(O)cc3)NC(=O)CN3CCN(CC(=O)O)CCN(CC(=O)O)CCN(CC(=O)O)CC3)(C(=O)N[C@@H](Cc3c[nH]c4ccccc34)C(N)=O)CC2)cc1F` [Compound 285] ({DOTA}-[dY][2Nal][Ahx]F[azaGly]L[Api](Gly(N-(3-F-4-Me-benzyl)))W-NH2), the Ki is < 10 nM.

As for `Cc1ccc(CNCC(=O)N2CCC(NC(=O)[C@H](CC(C)C)NC(=O)NNC(=O)[C@H](Cc3ccccc3)NC(=O)CCCCCNC(=O)[C@H](Cc3ccc4ccccc4c3)NC(=O)[C@@H](Cc3ccc(O)cc3)NC(=O)CN3CCN(CC(=O)O)CCN(CC(=O)O)CCN(CC(=O)O)CC3)(C(=O)N[C@@H](Cc3ccncc3)C(N)=O)CC2)cc1F` [Compound 286] ({DOTA}-[dY][2Nal][Ahx]F[azaGly]L[Api](Gly(N-(3-F-4-Me-benzyl)))[4Pal]-NH2), the Ki is < 10 nM.

With `CC(C)C[C@H](NC(=O)NNC(=O)[C@H](Cc1ccccc1)NC(=O)CCCCCNC(=O)[C@H](Cc1ccc2ccccc2c1)NC(=O)[C@@H](Cc1ccc(O)cc1)NC(=O)CN1CCN(CC(=O)O)CCN(CC(=O)O)CCN(CC(=O)O)CC1)C(=O)NC1(C(=O)N[C@@H](Cc2c[nH]c3ccccc23)C(N)=O)CCN(C(=N)N)CC1` [Compound 287] ({DOTA}-[dY][2Nal][Ahx]F[azaGly]L[Api(1-amidino)]W-NH2), the Ki fell in the range of 10 to 100 nM.
